From ChEMBL document CHEMBL5252585, “Structure optimization and discovery of novel compound for the treatment of insertion mutations within exon 20 of EGFR and HER2” (Bioorg Med Chem, 2023)

What was measured:
[1] = Mean residence time in Sprague-Dawley rat at 10 mg/kg, iv measured upto 8 hrs by LC-MS/MS analysis; type: ADME, organism-based; settings: in vivo
BaF3 = assay: Antiproliferative activity against mouse BAF3 cells harboring HER2-A775-G776 ins YVMA mutant after 72 hrs by celltiter-Glo luminescence assay; type: functional, cell-based; settings: BaF3, 72 h

C=CC(=O)N1CCC(Oc2cc3c(Nc4cccc(Cl)c4F)ncnc3cc2O[C@H]2CCOC2)CC1
MRT [1]: 1.89 h
IC50 (BaF3): 0.95 nM
